Assay results as given in ChEMBL document CHEMBL6182848, “Phenyl-benzyl-ureas with pyridazinone motif: Potent soluble epoxide hydrolase inhibitors with enhanced pharmacokinetics and efficacy in a paclitaxel-induced neuropathic pain model” (Eur J Med Chem, 2025).
Calls of active or inactive are those of the source.

Experiments:
[1] = biological target: T1, Bifunctional epoxide hydrolase 2 (Homo sapiens, UniProt P34913); experiment: Inhibition of human recombinant sEH expressed in baculovirus infected Sf9 cells using PHOME as substrate preincubated for 10 mins followed by substrate addition measured after 60 mins by fluorescence based assay; format: cell-based
T1 sequence (P34913 whole entry): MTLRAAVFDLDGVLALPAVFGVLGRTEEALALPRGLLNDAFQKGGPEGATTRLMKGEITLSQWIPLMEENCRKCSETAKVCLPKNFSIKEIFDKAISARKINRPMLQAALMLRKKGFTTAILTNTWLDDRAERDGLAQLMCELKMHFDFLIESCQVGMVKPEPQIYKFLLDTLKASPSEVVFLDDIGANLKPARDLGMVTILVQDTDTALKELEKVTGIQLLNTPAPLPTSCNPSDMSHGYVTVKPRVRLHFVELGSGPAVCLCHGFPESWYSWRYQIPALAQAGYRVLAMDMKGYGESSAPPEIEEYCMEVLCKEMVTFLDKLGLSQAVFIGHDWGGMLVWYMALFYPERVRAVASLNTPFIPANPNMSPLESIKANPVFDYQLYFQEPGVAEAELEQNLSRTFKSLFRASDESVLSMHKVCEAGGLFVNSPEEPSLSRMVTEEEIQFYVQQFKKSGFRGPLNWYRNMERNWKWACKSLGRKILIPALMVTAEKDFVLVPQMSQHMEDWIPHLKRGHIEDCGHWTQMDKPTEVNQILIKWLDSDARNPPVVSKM

[2] = Permeability coefficient of compound in PBS at pH 7.4 at 10 uM incubated for 16 hrs PAMPA-BBB assay
[3] = Toxicity in PTX-induced neuropathic pain male C57BL/6 mouse model assessed as change in body weight at 60 mg/kg/day, po treated for 14 days; format: organism-based; conditions: in vivo, 336 h, time 14 day
Mus musculus [4] = experiment: Analgesic activity in PTX-induced neuropathic pain male C57BL/6 mouse model assessed as improvement in mechanical paw withdrawal threshold at 60 mg/kg, po measured up to 4 hrs by Von Frey test; format: functional, organism-based
Mus musculus [5] = experiment: Analgesic activity in PTX-induced neuropathic pain male C57BL/6 mouse model assessed as improvement in mechanical paw withdrawal threshold at 60 mg/kg, po administered for 14 days by Von Frey test; format: functional, organism-based; conditions: time 14.0 day
[6] = Metabolic stability in human liver microsomes assessed as half life measured up to 60 mins in presence of NADPH by LC-MS/MS analysis; format: ADME, Microsome
[7] = Metabolic stability in mouse liver microsomes assessed as half life measured up to 60 mins in presence of NADPH by LC-MS/MS analysis; format: ADME, Microsome
[8] = Metabolic stability in human liver microsomes assessed as intrinsic clearance measured up to 60 mins in presence of NADPH by LC-MS/MS analysis; format: ADME, Microsome; conditions: 1 h
Mus musculus [9] = experiment: Analgesic activity in PTX-induced neuropathic pain male C57BL/6 mouse model assessed as improvement in mechanical paw withdrawal threshold at 30 mg/kg, po measured up to 4 hrs by Von Frey test; format: functional, organism-based
[10] = Oral bioavailability in male CD-1 mouse at 10 mg/kg measured up to 24 hrs by LC-MS/MS analysis; format: ADME, organism-based; conditions: in vivo
[11] = Cmax in male CD-1 mouse at 10 mg/kg, po measured up to 24 hrs by LC-MS/MS analysis; format: ADME, organism-based; conditions: in vivo
[12] = Half life in male CD-1 mouse at 10 mg/kg, po measured up to 24 hrs by LC-MS/MS analysis; format: ADME, organism-based; conditions: in vivo
PBMC [13] = experiment: Anti-inflammatory activity in LPS-induced human PBMC assessed as reduction in TNF-alpha level pre-incubated with compound for 30 mins followed by LPS stimulation and measured after 6 hrs by ELISA; format: functional, cell-based; conditions: dose 1-1000 nM, time 390.0 min
Mus musculus [14] = experiment: Analgesic activity in PTX-induced neuropathic pain male C57BL/6 mouse model assessed as improvement in mechanical paw withdrawal threshold at 10 to 30 mg/kg, po measured for 2 to 4 hrs by Von Frey test; format: functional, organism-based; conditions: dose 10-30 mg/kg, time 2-4 hrs
PBMC [15] = experiment: Anti-inflammatory activity in LPS-induced human PBMC assessed as reduction in IL-6 level pre-incubated with compound for 30 mins followed by LPS stimulation and measured after 6 hrs by ELISA; format: functional, cell-based; conditions: dose 1-1000 nM
[16] = Volume of distribution at steady state in male CD-1 mouse at 2 mg/kg, iv measured up to 24 hrs by LC-MS/MS analysis; format: ADME, organism-based; conditions: in vivo, read-out: Vdss
[17] = Cytotoxicity against human PBMC at 10 uM incubated for 24 hrs by MTT assay; format: toxicity, cell-based
[18] = C0 in male CD-1 mouse at 2 mg/kg, iv measured up to 24 hrs by LC-MS/MS analysis; format: ADME, organism-based; conditions: in vivo
[19] = AUC (0 to infinity) in male CD-1 mouse at 10 mg/kg, po measured up to 24 hrs by LC-MS/MS analysis; format: ADME, organism-based; conditions: in vivo
Mus musculus [20] = experiment: Analgesic activity in PTX-induced neuropathic pain male C57BL/6 mouse model assessed as improvement in mechanical paw withdrawal threshold at 30 mg/kg, po administered for 14 days by Von Frey test; format: functional, organism-based; conditions: time 14.0 day
[21] = MRT in male CD-1 mouse at 2 mg/kg, iv measured up to 24 hrs by LC-MS/MS analysis; format: ADME, organism-based; conditions: in vivo
[22] = Clearance in male CD-1 mouse at 2 mg/kg, iv measured up to 24 hrs by LC-MS/MS analysis; format: ADME, organism-based; conditions: in vivo
[23] = MRT in male CD-1 mouse at 10 mg/kg, po measured up to 24 hrs by LC-MS/MS analysis; format: ADME, organism-based; conditions: in vivo
[24] = Half life in male CD-1 mouse at 2 mg/kg, iv measured up to 24 hrs by LC-MS/MS analysis; format: ADME, organism-based; conditions: in vivo
[25] = AUC (0 to infinity) in male CD-1 mouse at 2 mg/kg, iv measured up to 24 hrs by LC-MS/MS analysis; format: ADME, organism-based; conditions: in vivo
Mus musculus [26] = experiment: Analgesic activity in PTX-induced neuropathic pain male C57BL/6 mouse model assessed as improvement in mechanical paw withdrawal threshold at 10 mg/kg, po measured up to 4 hrs by Von Frey test; format: functional, organism-based

O=C(Cc1ccccc1C(F)(F)F)Nc1ccc(-c2ccc(=O)[nH]n2)cc1
IC50 [1]: > 100 nM

CN(Cc1cnc2nc(N)nc(N)c2n1)c1ccc(C(=O)N[C@@H](CCC(=O)O)C(=O)O)cc1 [METHOTREXATE]
Kp ([2]; 16 h, 10 µM): 0.001 ×10⁻⁶ cm/s

O=C(NCc1ccc(C(F)(F)F)cc1)Nc1ccc(-c2ccc(=O)[nH]n2)cc1
IC50 [1]: ≥ 100 nM

NCC1(CC(=O)O)CCCCC1 [GABAPENTIN]
Activity [3]: Non-toxic | Activity (Mus musculus [4]): Active; Exhibited Consistent And Prolonged Effect | Activity (Mus musculus [5]): Active; Compound Effect Noticeably Decreased With Prolonged Administration

COc1ccc(CNC(=O)Nc2ccc(-c3ccc(=O)[nH]n3)cc2)c(C(F)(F)F)c1
half-life [6]: > 185 min | half-life [7]: 23.6 min | CLH [8]: < 7.5 µL/min/mg

Cn1nc(-c2ccc(NC(=O)NCc3ccccc3C(F)(F)F)cc2)ccc1=O
half-life [6]: > 185 min | half-life [7]: > 185 min | CLH [8]: < 7.5 µL/min/mg

O=C(NCc1ccccc1F)Nc1ccc(-c2ccc(=O)[nH]n2)cc1
IC50 [1]: ≥ 100 nM

O=C(NCc1ccccc1)Nc1ccc(-c2ccc(=O)[nH]n2)cc1
IC50 [1]: > 100 nM

O=C(NCc1ccccc1OC(F)(F)F)Nc1ccc(-c2ccc(=O)[nH]n2)cc1
Activity (Mus musculus [9]): Active | half-life [6]: > 185 min | bioavailability [10]: 78% | Cmax [11]: 4700 ng/mL | half-life [12]: 146 min | Activity (PBMC [13]): Dose-dependent-effect | Activity (Mus musculus [14]): Active | Activity (PBMC [15]): Dose-dependent-effect | Vd [16]: 1.02 L/kg | half-life [7]: > 185 min | Activity [17]: Non-toxic | C0 at 24 h [18]: 4640 ng/mL | AUC(0-inf) [19]: 29700 ng·h/mL | Activity (Mus musculus [20]): Active; Effect Was Lower Than Gabapentin With Chronic Use, But Its Efficacy Remained Stable | MRT [21]: 3.5 h | clearance [22]: 4.8 mL/min/kg | CLH [8]: < 7.5 µL/min/mg | Papp at 16 h, 10 µM [2]: 3.83 ×10⁻⁶ cm/s | MRT [23]: 5.23 h | half-life [24]: 193 min | AUC(0-inf) [25]: 7630 ng·h/mL | Activity (Mus musculus [26]): inactive

O=C(NCc1cccc(C(F)(F)F)c1)Nc1ccc(-c2ccc(=O)[nH]n2)cc1
IC50 [1]: ≥ 100 nM

O=C(NCc1ccccc1C(F)(F)F)Nc1ccc(-c2ccc(=O)[nH]n2)cc1
half-life [6]: > 185 min | half-life [7]: > 185 min | CLH [8]: < 7.5 µL/min/mg
